# From article PMC9693223 (Molecules, 2022)
# Read-outs that look alike come from different tables or passages of the source.
# B1: TcrNT2 (Trypanosoma cruzi strain CL Brener) (protein)
# chain: MGLGFEFWGEAYSYAAAIMCGLSMLLPINAIFSAPLYIMNYYQYVMHDPNAVAKHKNFWDNALTYYSMLIMLVALIVEPLTLSEAFRRIPIRLRMLSALSMFWLEIIILMSVPAAGSTEAGAISAIVCASFSSALGKSVFESTAYGLFGVFPSRFNTALMGGVGVAGALASILQLIVKASLPQDYSGIRTQSKIYYGLMAGIHGITFIMVVGLHWVPFAQRYINALSGGTSSPASNNPDQAAESETEAASKANEKSAPKATNGGDDNADSGRLVNTNVIFVLKCVYPMLSACGFNFFITLFLFPTIVVSVDPDDYWYGTVAVCIFNVCDVCGRFSPSLKCLWPPRWVVLVGSFSRVVFVPLLILASYHYIPSHAYNYVMMVIFGLSNGYIGALAITLGPLTRNLETSGQRFVAGTMFGISILIGGTIGSALSILVQTLRG
# Tests used:
# [1] = system: L. mexicana Cas9^ΔNT1 promastigotes; assay: Alamar blue drug sensitivity assay, L. mexicana Cas9^ΔNT1 promastigotes; assay type: cell-based, Leishmania mexicana; details: L. mexicana Cas9^ΔNT1 promastigotes, 72 h + 48 h resazurin
# Excerpt: (§1) We used L. mexicana promastigotes of the Cas9 strain developed by Beneke at al. to generate the ΔNT1 strain, and from there the Cas9^ΔNT1+TcrNT2 (see below); The original Cas9 strain was generously donated by Prof. Eva Gluenz (University of Bern, Switzerland). All strains in standard HOMEM (GIBCO, Life Technologies, Paisley, UK) supplemented with 10% heat-inactivated fetal bovine serum (FBS; PAA Laboratories, Linz, Austria) and 1% of a penicillin–streptomycin solution (10,000 U mL^−1 each; Life Technologies) at 25 °C, as described.
# (§2) The Alamar blue assay (resazurin sodium salt) was used to determine the drug sensitivity of the L. mexicana promastigotes in vitro. The assay is based on the reduction of resazurin sodium salt (blue and non-fluorescent) to resorufin (pink color and fluorescent) by live cells. HOMEM medium with 10% FBS (100 μL) was added to all wells of a white 96-well plate apart from the first well. 200 μL of a known concentration of test compounds was diluted in HOMEM medium and placed in the first well. Compounds were tested in one plate and every compound was diluted over two rows (23 concentrations), leaving the last well of every dilution as a negative control having 100 μL HOMEM medium. Next, 100 μL of L. mexicana culture at a density of 2 × 10^6 cells mL^−1 was added into every well in the plate and incubated for 72 h at a temperature of 25 °C after which resazurin sodium salt (Sigma) (20 μL of a solution of 12.5 mg in 100 mL PBS) was added and the plate was incubated under the same conditions for a further 48 h. Fluorescence was measured in a FLUOstar OPTIMA plate reader (BMG Labtech, Germany), at a wavelength of 544 nm for excitation and 620 nm for emission. The EC50 values and fluorescence data were determined and plotted by the GraphPad Prism 8 Software using an equation for a sigmoid curve with variable slope. Pentamidine was used as positive control and every experiment was performed 3–4 times independently.
# [2] = system: L. mexicana Cas9^ΔNT1+TcrNT2 promastigotes; assay: Alamar blue drug sensitivity assay, L. mexicana Cas9^ΔNT1+TcrNT2 promastigotes; assay type: cell-based, Leishmania mexicana; details: L. mexicana Cas9^ΔNT1+TcrNT2 promastigotes, 72 h + 48 h resazurin
# Excerpt: as §1, §2
# [3] = system: L. mexicana Cas9 promastigotes; assay: Alamar blue drug sensitivity assay, L. mexicana Cas9 promastigotes; assay type: cell-based, Leishmania mexicana; details: 72 h + 48 h resazurin, at least 3 independent determinations
# Excerpt: as §1, §2
# [4] = system: T. cruzi epimastigotes (CL Brener strain); assay: In vitro inhibition of proliferation of T. cruzi epimastigotes; assay type: cell-based, Trypanosoma cruzi; details: cell densities at the 5th day of proliferation, four independent experiments
# Experimental: Trypomastigotes were obtained by infecting CHO-K1 cells. CHO-K1 cells were cultivated in RPMI-1640 medium supplemented with 10% heat-inactivated fetal calf serum (FCS), 0.15% (w/v) […], 100 µg mL^−1 penicillin and 130 µg mL^−1 streptomycin and incubated at 37 °C in a humidified atmosphere containing 5% CO2. CHO-K1 cells were initially incubated with metacyclic trypomastigotes obtained by in vitro differentiation of epimastigotes as previously described (multiplicity of infection: 50 parasites per cell) for 4 h. After washing out the non-internalized parasites, the cells were incubated overnight in RPMI medium supplemented with 10% FCS at 37 °C and then maintained at 33 °C in a humidified atmosphere containing 5% CO2 as previously reported. Infected cells were maintained at 33 °C in the presence of 10% FCS. Infected cell-derived trypomastigotes started to burst into the culture medium at the 5th day post-infection. Trypomastigotes collected at day 5 or 6 post infection were used for the viability assays.
# The density of exponentially proliferating epimastigotes for each assay was adjusted to 2.0 × 10^6 parasites mL^−1, transferred into 96-well plates (200 μL/well) and incubated with different concentrations of the compounds 5-F-2′-deoxyuridine, 5-F-uracil, 5-F-uridine or benznidazole. A combination of 60 μM rotenone and 0.5 μM antimycin (RA) was used as a positive control for proliferation inhibition (positive control), as previously described. […] The epimastigote proliferation was measured as previously reported, by reading the optical density (OD) at 620 nm every 24 h for 9 days (which collects readings through the exponential and stationary phases). […] The half-maximal inhibitory concentrations (IC50) were determined during the exponential growth phase (fifth day) by adjusting a sigmoidal dose-response function to experimentally obtained data using GraphPad Prism 8. The compounds were assessed in quadruplicate in each experiment, and the results correspond to four independent experiments.
# [5] = system: NT1 transport activity; parameters: method as in PMID 28453984; details: NT1 transport activity in L. mexicana; ref [36]; cited from earlier work
# [6] = biological target: TcrNT2 (Trypanosoma cruzi, UniProt Q4DHG0); details: ref Campagnaro et al. [30], cited from earlier work
# [7] = system: L. mexicana Cas9 promastigotes; parameters: method as in de Almeida Fiuza et al. [41]; details: starred values, ref de Almeida Fiuza et al. [41], read-out: EC50 (µM) AVG ± SEM, Cas9; cited from earlier work
# [8] = system: L. mexicana Cas9^ΔNT1+TcrNT2 promastigotes; parameters: method as in de Almeida Fiuza et al. [41]; details: starred values, ref de Almeida Fiuza et al. [41], cited from earlier work; for EC50: L. mexicana Cas9^ΔNT1+TcrNT2 promastigotes, read-out: EC50 (µM) AVG ± SEM, L. mexicana Cas9^ΔNT1+TcrNT2; for RF vs. ΔNT1 (resistance factor): Cas9^ΔNT1+TcrNT2 in comparison to Cas9^ΔNT1
# [9] = system: L. mexicana Cas9^ΔNT1 promastigotes; parameters: method as in de Almeida Fiuza et al. [41]; details: starred values, ref de Almeida Fiuza et al. [41], cited from earlier work; for RF vs. Cas9 (resistance factor): EC50 Cas9^ΔNT1 relative to Cas9; for EC50: L. mexicana Cas9^ΔNT1 promastigotes, read-out: EC50 (µM) AVG ± SEM, L. mexicana Cas9^ΔNT1
# [10] = system: intracellular T. cruzi amastigotes; details: intracellular amastigotes; ref [16]; read-out: EC50 against intracellular T. cruzi amastigotes; cited from earlier work
# [11] = substrate: Cc1cn([C@H]2C[C@H](O)[C@@H](CO)O2)c(=O)[nH]c1=O; assay: Transport of [^3H]-thymidine by TcrNT2 expressed in L. mexicana Cas9^ΔNT1 (Km, inhibition); assay type: cell-based, Trypanosoma cruzi; details: other: TcrNT2 in L. mexicana Cas9^ΔNT1, […] [^3H]-thymidine, 5 min, n = 3
# Experimental: These values can be used to calculate the Gibbs free energy of interaction ΔG°, but these experiments cannot distinguish between the test compound being transported or merely binding to the transporter and inhibiting the transit of the [^3H]-thymidine.
# Transport assays were conducted with radiolabeled nucleosides [methyl-^3H]-thymidine (20 Ci/mmol; PerkinElmer (Waltham, MA, USA)) and [2,8-^3H]-adenosine (40 Ci/mmol; American Radiolabeled Chemicals (ARC, St-Louis, MO, USA)). Cells were harvested from mid-log phase cultures by centrifugation and washed into an assay buffer (AB) as described, at a density of 1 × 10^8 cells mL^−1. Transport assays were then performed exactly as described previously, using an oil-stop protocol. […]
# Michaelis-Menten constants (Km) were calculated by plotting transport rates of [^3H]-substrate against the concentration, using the Michaelis-Menten equation V0 = Vmax([substrate]/([substrate] + Km)) and non-linear regression in GraphPad Prism 8. Inhibition constants (Ki) were calculated using the Cheng-Prusoff equation: Ki = IC50/(1 + (L/Km)), where L represents the radiolabel concentration. […]
Molecule,EC50 [7] [µM],EC50 [8] [µM],RF vs. Cas9 (resistance factor) [9],EC50 [9] [µM],RF vs. ΔNT1 (resistance factor) [8],further results
O=c1[nH]cc(F)c(=O)[nH]1 [5-F-uracil],–,–,–,–,–,"EC50 (µM) AVG ± SEM, L. mexicana Cas9^ΔNT1 [1]: poorly active; EC50 (µM) AVG ± SEM, L. mexicana Cas9^ΔNT1+TcrNT2 [2]: poorly active; EC50 (µM) AVG ± SEM, Cas9 [3]: poorly active; IC50 [4]: 25.9 ± 0.01 µM"
O=c1[nH]c(=O)n([C@@H]2O[C@H](CO)[C@@H](O)[C@H]2O)cc1F [5-F-uridine],–,–,–,–,–,"EC50 ([1]; read-out: EC50 (µM) AVG ± SEM, L. mexicana Cas9^ΔNT1): > 500 µM; EC50 ([2]; read-out: EC50 (µM) AVG ± SEM, L. mexicana Cas9^ΔNT1+TcrNT2): > 500 µM; EC50 ([3]; read-out: EC50 (µM) AVG ± SEM, Cas9): > 500 µM; IC50 [4]: > 500 µM"
Nc1ncnc2c1ncn2[C@@H]1O[C@H](CO)[C@@H](O)[C@H]1O [Adenosine],–,–,–,–,–,"Km [5]: 0.81 ± 0.16 µM; Ki ([6]; earlier characterization, TcrNT2 expressed in T. brucei, read-out: Ki on thymidine transport by TcrNT2): 1560 ± 60 µM; ΔG° (Gibbs free energy of interaction) ([6]; from cited Ki): -15.8 kJ/mol"
"Nc1ncnc2c1c(-c1ccc(Cl)c(Cl)c1)cn2[C@@H]1O[C@H](CO)[C@@H](O)[C@H]1O [FH3147, 7-(3,4-dichlorophenyl)-tubercidin]",8.41 ± 1.61,13.7 ± 1.25,>11.8,> 100,–,EC50 [10]: 0.19 µM
Nc1ncnc2c1c(Cl)cn2[C@@H]1O[C@H](CO)[C@@H](O)[C@H]1O [FH3169],0.24 ± 0.055,0.32 ± 0.05,8.43,2 ± 0.19,6.26,–
Nc1ncnc2c1c(-c1ccc(Cl)c(F)c1)cn2[C@@H]1O[C@H](CO)[C@@H](O)[C@H]1O [FH10714],> 500,> 500,–,> 500,–,–
Nc1ncnc2c1c(-c1ccccc1)cn2[C@@H]1O[C@H](CO)[C@@H](O)[C@H]1O [TH1004],37 ± 0.23,101 ± 0.5,3.7,138 ± 10,1.37,–
Nc1ncnc2c1c(-c1ccc(Cl)cc1)cn2[C@@H]1O[C@H](CO)[C@@H](O)[C@H]1O [TH1012],52.5 ± 0.3,96.6 ± 0.3,5.3,280 ± 18,2.90,–
B1,–,–,–,–,–,Km [11]: 0.263 µM; Km ([11]; […]): 0.26 ± 0.05 µM
